From the NIST ThermoML archive (doi:10.1016/j.jct.2013.10.025)

Assay: xn = mol fraction of the nth substance listed
Conditions: 101 kPa, Liquid; for viscosity: Capillary tube (Ostwald / Ubbelohde) method; for speed of sound: Sing-around technique in a fixed-path interferometer; for mass density: Vibrating tube method

CCCCCCO [hexan-1-ol] + C1CCOC1
Conditions | mass density [kg/m3] | speed of sound [m/s] | viscosity [mPa·s]
298.15 K, x2 = 0.0538 | 817.624 | 1301.1 | 3.778
298.15 K, x2 = 0.1144 | 820.377 | 1298.8 | 3.16
298.15 K, x2 = 0.1511 | 822.105 | 1297 | 2.887
298.15 K, x2 = 0.2009 | 824.537 | 1295 | 2.477
298.15 K, x2 = 0.256 | 827.327 | 1292.7 | 2.133
298.15 K, x2 = 0.3156 | 830.492 | 1291 | 1.855
298.15 K, x2 = 0.4199 | 836.41 | 1287.7 | 1.453
298.15 K, x2 = 0.5013 | 841.407 | 1285.1 | 1.199
298.15 K, x2 = 0.6029 | 848.183 | 1282.2 | 0.986
298.15 K, x2 = 0.7071 | 855.823 | 1279.3 | 0.786
298.15 K, x2 = 0.8042 | 863.667 | 1277.1 | 0.661
298.15 K, x2 = 0.9057 | 872.745 | 1276.4 | 0.559
303.15 K, x2 = 0.0538 | 813.958 | 1284.1 | 3.22
303.15 K, x2 = 0.1144 | 816.633 | 1281.5 | 2.737
303.15 K, x2 = 0.1511 | 818.311 | 1279.5 | 2.516
303.15 K, x2 = 0.2009 | 820.671 | 1277.3 | 2.148
303.15 K, x2 = 0.256 | 823.388 | 1275.1 | 1.901
303.15 K, x2 = 0.3156 | 826.467 | 1272.8 | 1.633
303.15 K, x2 = 0.4199 | 832.217 | 1269 | 1.325
303.15 K, x2 = 0.5013 | 837.071 | 1265.9 | 1.107
303.15 K, x2 = 0.6029 | 843.655 | 1262.2 | 0.904
303.15 K, x2 = 0.7071 | 851.067 | 1258.5 | 0.719
303.15 K, x2 = 0.8042 | 858.694 | 1255.6 | 0.619
303.15 K, x2 = 0.9057 | 867.506 | 1254 | 0.536
308.15 K, x2 = 0.0538 | 810.268 | 1267.1 | 2.728
308.15 K, x2 = 0.1144 | 812.863 | 1264 | 2.373
308.15 K, x2 = 0.1511 | 814.495 | 1261.9 | 2.13
308.15 K, x2 = 0.2009 | 816.788 | 1259.4 | 1.886
308.15 K, x2 = 0.256 | 819.426 | 1257.1 | 1.598
308.15 K, x2 = 0.3156 | 822.411 | 1254.3 | 1.422
308.15 K, x2 = 0.4199 | 827.995 | 1249.8 | 1.127
308.15 K, x2 = 0.5013 | 832.704 | 1246 | 0.95
308.15 K, x2 = 0.6029 | 839.095 | 1241.4 | 0.796
308.15 K, x2 = 0.7071 | 846.295 | 1236.7 | 0.64
308.15 K, x2 = 0.8042 | 853.69 | 1232.5 | 0.566
308.15 K, x2 = 0.9057 | 862.242 | 1230 | 0.47
313.15 K, x2 = 0.0538 | 806.544 | 1250.3 | –
313.15 K, x2 = 0.1144 | 809.062 | 1246.9 | –
313.15 K, x2 = 0.1511 | 810.645 | 1244.7 | –
313.15 K, x2 = 0.2009 | 812.872 | 1242.7 | –
313.15 K, x2 = 0.256 | 815.429 | 1239.8 | –
313.15 K, x2 = 0.3156 | 818.321 | 1236.7 | –
313.15 K, x2 = 0.4199 | 823.739 | 1231.7 | –
313.15 K, x2 = 0.5013 | 828.306 | 1227.5 | –
313.15 K, x2 = 0.6029 | 834.502 | 1222.5 | –
313.15 K, x2 = 0.7071 | 841.483 | 1217 | –
313.15 K, x2 = 0.8042 | 848.648 | 1212.4 | –
313.15 K, x2 = 0.9057 | 856.935 | 1209 | –
